Data taken from US9856279B2 (AGIOS PHARMACEUTICALS, INC, priority 2011, dated 2018).

Tests used:
IDH1 R132H = IDH1 R132H (Homo sapiens, UniProt O75874, R132H); test: Assay for IDH1 R132H inhibitors (NADPH/aKG, resazurin detection); format: biochemical; details: enzyme assay of Example 12; read-out: IDH1R132H IC50
Procedure, shortened: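 Read-out is resorufin fluorescence (Ex544/Em590) 5 min after adding a 30 μM resazurin detection mix. Before that, mutant enzyme (0.2 μg/ml in its mix) ran 50 min at room temperature with compound, 8 uM NADPH and 2 mM aKG (mix levels) in Tris pH 7.5 with NaCl, MgCl2, BSA.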

U87MG cells = test: Cellular assay for IDH1m inhibitors: inhibition of 2-HG production (LC-MS, 48 hours) in U87MG cells; format: cell-based; details: Homo sapiens, U-87 MG, inhibition of 2-HG production, U87R132H cells; read-out: U87R132H IC50
Procedure, shortened: (§1)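 Inhibition of 2-HG production was assessed in cells seeded at 5000/well and exposed to compound for 48 h (final DMSO 0.2%). Supernatant 2-HG was analysed by LC-MS.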

HT1080 cells = test: Cellular assay for IDH1m inhibitors: inhibition of 2-HG production (LC-MS, 48 hours) in HT1080 cells; format: cell-based; details: Homo sapiens, HT-1080; inhibition of 2-HG production, HT1080 cells; read-out: HT1080 IC50
Procedure, shortened: as §1

Chain of IDH1 R132H (O75874 whole entry R132H): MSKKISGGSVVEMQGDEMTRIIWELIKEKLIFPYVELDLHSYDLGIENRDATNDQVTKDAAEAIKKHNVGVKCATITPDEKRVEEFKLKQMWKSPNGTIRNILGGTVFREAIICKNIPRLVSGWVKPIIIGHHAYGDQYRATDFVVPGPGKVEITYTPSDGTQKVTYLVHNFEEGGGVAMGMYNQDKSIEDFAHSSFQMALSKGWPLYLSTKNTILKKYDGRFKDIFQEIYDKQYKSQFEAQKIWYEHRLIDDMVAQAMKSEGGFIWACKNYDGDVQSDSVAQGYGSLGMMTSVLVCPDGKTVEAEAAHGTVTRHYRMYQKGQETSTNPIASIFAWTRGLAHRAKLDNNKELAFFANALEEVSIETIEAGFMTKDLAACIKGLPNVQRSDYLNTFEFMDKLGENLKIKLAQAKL

Row | SMILES | IC50 (IDH1 R132H) [nM] | IC50 (U87MG cells) [nM] | IC50 (HT1080 cells) [nM]
1 | COCCC(=O)N1CCN(c2nc(C3CC3)c(-c3ccc4ncsc4c3)cc2C#N)C[C@H]1C [Compound 364, (R)-5-benzothiazol-6-yl-6-cyclopropyl-2-[4-(3-methoxy-propionyl)-3-methyl-piperazin-1-yl]-nicotinonitrile] | < 500 | < 500 | 500 to 1000
2 | COCCC(=O)N1CCN(c2nc(C3CC3)c(-c3cnnc(OS(=O)(=O)C(F)(F)F)c3)cc2C#N)C[C@H]1C1CC1 [Compound 675, (R)-5-(5-cyano-2-cyclopropyl-6-(3-cyclopropyl-4-(3-methoxypropanoyl)piperazin-1-yl)pyridin-3-yl)pyridazin-3-yl trifluoromethanesulfonate] | < 500 | 500 to 1000 | 1000 to 10000
3 | COCCC(=O)N1CCN(c2nc(C3CC3)c(-c3ccc(C(N)=O)cc3)cc2C#N)C[C@H]1C [Compound 296, (R)-4-(5-cyano-2-cyclopropyl-6-(4-(3-methoxypropanoyl)-3-methylpiperazin-1-yl)pyridin-3-yl)benzamide] | < 500 | 500 to 1000 | 500 to 1000
4 | C=Cc1cc(-c2c(C3CC3)nc(N3CCN(C(=O)CC4CCC(=O)O4)[C@H](C4CC4)C3)c(C#N)c2C)ccn1 (stereo partly drawn) [Compound 806, 2-cyclopropyl-6-((3R)-3-cyclopropyl-4-(2-(5-oxotetrahydrofuran-2-yl)acetyl)piperazin-1-yl)-4-methyl-2′-vinyl-[3,4′-bipyridine]-5-carbonitrile] | < 500 | < 500 | < 500
5 | COCCC(=O)N1CCN(c2nc(C3CC3)c(-c3ccc(N)cc3)cc2C#N)C[C@H]1C [Compound 383, (R)-5-(4-aminophenyl)-6-cyclopropyl-2-(4-(3-methoxypropanoyl)-3-methylpiperazin-1-yl)nicotinonitrile] | < 500 | 1000 to 10000 | 1000 to 10000
6 | C=Cc1ccnc(Nc2cc(C#N)c(N3CCN(C(=O)CCO)[C@H](C4CC4)C3)nc2C2CC2)c1 [Compound 756, (R)-6-cyclopropyl-2-(3-cyclopropyl-4-(3-hydroxypropanoyl)piperazin-1-yl)-5-((4-vinylpyridin-2-yl)amino)nicotinonitrile] | < 500 | < 500 | < 500
7 | C=Cc1cc(-c2cc(C#N)c(N3CCN(C(=O)CCO)[C@H](C4CC4)C3)nc2C2CC2)nc(N)n1 [Compound 719, (R)-5-(2-amino-6-vinylpyrimidin-4-yl)-6-cyclopropyl-2-(3-cyclopropyl-4-(3-hydroxypropanoyl)piperazin-1-yl)nicotinonitrile] | < 500 | < 500 | < 500
8 | C=Cc1cc(COc2cc(C#N)c(N3CCN(C(=O)CCOC)[C@H](C)C3)nc2C2CC2)ccn1 [Compound 703, (R)-6-cyclopropyl-2-(4-(3-methoxypropanoyl)-3-methylpiperazin-1-yl)-5-((2-vinylpyridin-4-yl)methoxy)nicotinonitrile] | < 500 | < 500 | < 500
9 | N#Cc1cc(-c2cccc3ncoc23)c(C2CC2)nc1N1CCN(C(=O)C2CC2)[C@H](C2CC2)C1 [Compound 483, (R)-5-(benzo[d]oxazol-7-yl)-2-(4-(cyclopropanecarbonyl)-3-cyclopropylpiperazin-1-yl)-6-cyclopropylnicotinonitrile] | < 500 | 500 to 1000 | 1000 to 10000
10 | COCCC(=O)N1CCN(c2nc(C3CC3)c(OCc3ccccn3)cc2C#N)C[C@H]1C [Compound 279, (R)-6-cyclopropyl-2-(4-(3-methoxypropanoyl)-3-methylpiperazin-1-yl)-5-(pyridin-2-ylmethoxy)nicotinonitrile] | 500 to 1000 | 1000 to 10000 | 1000 to 10000
11 | C=Cc1cc(-c2cc(C#N)c(N3CCN(C(=O)CCO)[C@H](C)C3)nc2C2CC2)ccn1 [Compound 500] | < 500 | < 500 | < 500
12 | C=Cc1cc(-c2cc(C#N)c(N3CCN(C(=O)CCOC)[C@H](C4CC4)C3)nc2C2CC2)ncn1 [Compound 638, (R)-6-cyclopropyl-2-(3-cyclopropyl-4-(3-methoxypropanoyl)piperazin-1-yl)-5-(6-vinylpyrimidin-4-yl)nicotinonitrile] | < 500 | < 500 | < 500
13 | COCCC(=O)N1CCN(c2nc(C3CC3)c(OCc3cccc(C#N)c3)cc2C#N)C[C@H]1C [Compound 294, (R)-5-(3-cyanobenzyloxy)-6-cyclopropyl-2-(4-(3-methoxypropanoyl)-3-methylpiperazin-1-yl)nicotinonitrile] | < 500 | 500 to 1000 | 500 to 1000
14 | C=Cc1cc(Nc2c(C3CC3)nc(N3CCN(C(=O)CCO)[C@H](C4CC4)C3)c(C#N)c2C)ccn1 [Compound 742, (R)-6-cyclopropyl-2-(3-cyclopropyl-4-(3-hydroxypropanoyl)piperazin-1-yl)-4-methyl-5-(2-vinylpyridin-4-ylamino)nicotinonitrile] | < 500 | < 500 | < 500
15 | C=Cc1cnnc(-c2cc(C#N)c(N3CCN(C(=O)COC)[C@H](C4CC4)C3)nc2C2CC2)c1 [Compound 724, (R)-6-cyclopropyl-2-(3-cyclopropyl-4-(2-methoxyacetyl)piperazin-1-yl)-5-(5-vinylpyridazin-3-yl)nicotinonitrile] | < 500 | < 500 | < 500
16 | C=CC(=O)N(c1ccncc1)c1cc(C#N)c(N2CCN(C(=O)CCOC)[C@H](C)C2)nc1C1CC1 [Compound 702, (R)—N-(5-cyano-2-cyclopropyl-6-(4-(3-methoxypropanoyl)-3-methylpiperazin-1-yl)pyridin-3-yl)-N-(pyridin-4-yl) acryl amide] | < 500 | 1000 to 10000 | 1000 to 10000
17 | C=Cc1ccnc(Oc2cc(C#N)c(N3CCN(C(=O)CCOC)[C@H](C4CC4)C3)nc2C2CC2)c1 [Compound 733] | < 500 | < 500 | 500 to 1000
18 | C=Cc1cc(-c2cc(C#N)c(N3CCN(C(=O)CCOC)[C@H](C4CC4)C3)nc2C2CC2)cnn1 [Compound 674, (R)-6-cyclopropyl-2-(3-cyclopropyl-4-(3-methoxypropanoyl)piperazin-1-yl)-5-(6-vinylpyridazin-4-yl)nicotinonitrile] | < 500 | < 500 | < 500
19 | COCCC(=O)N1CCN(c2nc(C3CC3)c(-c3ccc4c(c3)OCO4)c(C)c2C#N)C[C@H]1C [Compound 269, (R)-5-(benzo[d][1,3]dioxol-5-yl)-6-cyclopropyl-2-(4-(3-methoxypropanoyl)-3-methylpiperazin-1-yl)-4-methylnicotinonitrile] | < 500 | 1000 to 10000 | 1000 to 10000
20 | COCCC(=O)N1CCN(c2nc(C3CC3)c(-c3c(C)noc3C)c(C)c2C#N)C[C@H]1C [Compound 351, (R)-6-cyclopropyl-5-(3,5-dimethyl-isoxazol-4-yl)-2-[4-(3-methoxy-propionyl)-3-methyl-piperazin-1-yl]-4-methyl-nicotinonitrile] | < 500 | 500 to 1000 | 1000 to 10000
21 | COCCC(=O)N1CCN(c2nc(C3CC3)c(-c3cccc4cc[nH]c34)cc2C#N)C[C@H]1C [Compound 373, (R)-6-cyclopropyl-5-(1H-indol-7-yl)-2-[4-(3-methoxy-propionyl)-3-methyl-piperazin-1-yl]-nicotinonitrile] | < 500 | 500 to 1000 | 1000 to 10000
22 | COCCC(=O)N1CCN(c2nc(C3CC3)c(-c3ccc4c(c3)NC(=O)C4)cc2C#N)C[C@H]1C [Compound 313, (R)-6-cyclopropyl-2-(4-(3-methoxypropanoyl)-3-methylpiperazin-1-yl)-5-(2-oxoindolin-6-yl)nicotinonitrile] | < 500 | 500 to 1000 | 1000 to 10000
23 | C=Cc1ccnc(Nc2c(C3CC3)nc(N3CCN(C(=O)CCO)[C@H](C4CC4)C3)c(C#N)c2C)c1 [Compound 725, (R)-6-cyclopropyl-2-(3-cyclopropyl-4-(3-hydroxypropanoyl)piperazin-1-yl)-4-methyl-5-((4-vinylpyridin-2-yl)amino)nicotinonitrile] | < 500 | < 500 | < 500
24 | COCCC(=O)N1CCN(c2nc(C3CC3)c(-c3ccc(CNC(C)=O)cc3)c(C)c2C#N)C[C@H]1C [Compound 340, (R)—N-(4-{5-cyano-2-cyclopropyl-6-[4-(3-methoxy-propionyl)-3-methyl-piperazin-1-yl]-4-methyl-pyridin-3-yl}-benzyl)-acetamide] | < 500 | 500 to 1000 | 500 to 1000
25 | COCCC(=O)N1CCN(c2nc(C3CC3)c(-c3ccc4ccccc4c3)c(C)c2C#N)C[C@H]1C [Compound 267, (R)-6-cyclopropyl-2-(4-(3-methoxypropanoyl)-3-methylpiperazin-1-yl)-4-methyl-5-(naphthalen-2-yl)nicotinonitrile] | 500 to 1000 | 1000 to 10000 | 1000 to 10000
26 | CCc1cc(-c2cc(C#N)c(N3CCN(C(=O)CCOC)[C@H](C)C3)nc2C2CC2)ccn1 [Compound 426, (R)-2-cyclopropyl-2′-ethyl-6-(4-(3-methoxypropanoyl)-3-methylpiperazin-1-yl)-3,4′-bipyridine-5-carbonitrile] | 500 to 1000 | 1000 to 10000 | 1000 to 10000
